# Source: patent publication US6808904B2, “Herbicide-tolerant protox genes produced by DNA shuffling” (priority 1994, dated 2004)
# Columns and labels:
# [1] = system: Arabidopsis line expressing AraC-2Ile+AraC305Leu; assay: Cross tolerance in a seed germination assay, homozygous Arabidopsis line with AraC-2Ile+AraC305Leu; assay type: in vivo, Arabidopsis thaliana; settings: AraC-2Ile+AraC305Leu line vs wt
# Procedure: Using the procedure described above, an Arabidopsis protox-1 cDNA containing a TAC to ATG (Tyrosine to Methionine) change at nucleotides 1306-1308 in the protox-1 sequence (SEQ ID NO:1) was fused to the native protox-1 promoter fragment and transformed into Arabidopsis thaliana. […] Seed from the vacuum infiltrated plants was collected and plated on a range (10.0 nM-1.0 uM) of a protox inhibitory aryluracil herbicide of formula XVII. Multiple experiments with wild type Arabidopsis have shown that a 10.0 nM concentration of this compound is sufficient to prevent normal seedling germination. Transgenic seeds expressing the AraC-2Met altered enzyme fused to the native protox-1 promoter produced normal Arabidopsis seedlings at herbicide concentrations up to 500 nM, indicating at least 50-fold higher herbicide tolerance when compared to wild-type Arabidopsis. This promoter/altered protox enzyme fusion therefore functions as an effective selectable marker for plant transformation. Several of the plants that germinated on 100.0 nM of protox-inhibiting herbicide were transplanted to soil, grown 2-3 weeks, and tested in a spray assay with various concentrations of the protox-inhibiting herbicide. When compared to empty vector control transformants, the AraPT1Pro/AraC-2Met transgenics were >10-fold more tolerant to the herbicide spray.
# Using the procedure described above, an Arabidopsis protox-1 cDNA containing both a TAC to ATC (tyrosine to isoleucine) change at nucleotides 1306-1308 and a TCA to TTA (serine to leucine) change at nucleotides 945-947 in the protox-1 sequence (SEQ ID NO:1) was fused to the native protox-1 promoter fragment and transformed into Arabidopsis thaliana.
# [2] = biological target: T1, plant protox mutants (Arabidopsis protox-1) in SASX38 (Arabidopsis thaliana, UniProt P55826, A220L/T56K); assay: Bacterial cross-tolerance testing of resistant mutant plasmids in SASX38, Arabidopsis protox-1 mutants; assay type: cell-based; set-up: key to Cross tolerance, AraC-1Val / Cross tolerance, AraC-2Cys / Cross tolerance, AraC-1Thr / Cross tolerance, AraC-3Thr / Cross tolerance, AraC-2Ile / Cross tolerance, AraC-2Cys + AraC425Ser: + = 10× or more tolerant than WT; ++ = 100× or more tolerant than WT; − = no cross tolerance; settings: mutant AraC-1Leu
# T1 construct: contains only 17 amino acids of the putative chloroplast transit peptide; expressed in transfected cells; host or cells: E. coli SASX38 (hemG mutant)
# T1 sequence (P55826 41-537 T56K/A220L): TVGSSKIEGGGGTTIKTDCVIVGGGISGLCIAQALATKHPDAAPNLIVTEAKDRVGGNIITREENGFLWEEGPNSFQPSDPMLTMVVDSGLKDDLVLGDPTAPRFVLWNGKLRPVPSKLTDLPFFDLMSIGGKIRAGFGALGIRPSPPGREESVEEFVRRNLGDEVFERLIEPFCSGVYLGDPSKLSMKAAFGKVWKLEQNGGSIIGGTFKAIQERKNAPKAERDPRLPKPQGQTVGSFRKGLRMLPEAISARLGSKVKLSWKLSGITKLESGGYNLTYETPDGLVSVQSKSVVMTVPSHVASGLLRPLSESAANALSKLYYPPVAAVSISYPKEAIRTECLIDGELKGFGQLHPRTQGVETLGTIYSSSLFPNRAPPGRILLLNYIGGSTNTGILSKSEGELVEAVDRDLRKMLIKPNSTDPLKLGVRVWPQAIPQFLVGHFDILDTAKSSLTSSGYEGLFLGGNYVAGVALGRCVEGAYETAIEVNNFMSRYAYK
# Procedure: (§1) Resistant mutant plasmids, originally identified based on resistance against a single protox inhibitory herbicide, were tested against a spectrum of other protox inhibiting compounds. For this test, the SASX38 strain containing the wild-type plasmid is plated on a range of concentrations of each compound to determine the lethal concentration for each one. Resistant mutant plasmids in SASX38 are plated and scored for the ability to survive on a concentration of each compound at least 10 fold higher than the concentration that is lethal to the SASX38 strain containing the wild-type plasmid.
# [3] = biological target: T2, plant protox mutants (Arabidopsis protox-1) in SASX38 (Arabidopsis thaliana, UniProt P55826, A220T/T56K); assay: as above; assay type: cell-based; set-up: key to Cross tolerance, AraC-1Val / Cross tolerance, AraC-2Cys / Cross tolerance, AraC-1Thr / Cross tolerance, AraC-3Thr / Cross tolerance, AraC-2Ile / Cross tolerance, AraC-2Cys + AraC425Ser: + = 10× or more tolerant than WT; ++ = 100× or more tolerant than WT; − = no cross tolerance; settings: mutant AraC-1Thr vs WT plasmid in SASX38
# T2 construct: contains only 17 amino acids of the putative chloroplast transit peptide; expressed in transfected cells; host or cells: E. coli SASX38 (hemG mutant)
# T2 sequence (P55826 41-537 T56K/A220T): as the sequence (P55826 41-537 T56K/A220L) above, with L180T counted along it
# Procedure: as §1
# [4] = biological target: T3, plant protox mutants (Arabidopsis protox-1) in SASX38 (Arabidopsis thaliana, UniProt P55826, A220V/T56K); assay: as above; assay type: cell-based; set-up: key to Cross tolerance, AraC-1Val / Cross tolerance, AraC-2Cys / Cross tolerance, AraC-1Thr / Cross tolerance, AraC-3Thr / Cross tolerance, AraC-2Ile / Cross tolerance, AraC-2Cys + AraC425Ser: + = 10× or more tolerant than WT; ++ = 100× or more tolerant than WT; − = no cross tolerance; settings: mutant AraC-1Val vs WT plasmid in SASX38
# T3 construct: contains only 17 amino acids of the putative chloroplast transit peptide; expressed in transfected cells; host or cells: E. coli SASX38 (hemG mutant)
# T3 sequence (P55826 41-537 T56K/A220V): as the sequence (P55826 41-537 T56K/A220L) above, with L180V counted along it
# Procedure: as §1
# [5] = biological target: T4, plant protox mutants (Arabidopsis protox-1) in SASX38 (Arabidopsis thaliana, UniProt P55826, N425S/T56K/Y426C); assay: as above; assay type: cell-based; set-up: key to Cross tolerance, AraC-1Val / Cross tolerance, AraC-2Cys / Cross tolerance, AraC-1Thr / Cross tolerance, AraC-3Thr / Cross tolerance, AraC-2Ile / Cross tolerance, AraC-2Cys + AraC425Ser: + = 10× or more tolerant than WT; ++ = 100× or more tolerant than WT; − = no cross tolerance; settings: mutant AraC-2Cys + AraC425Ser
# T4 construct: contains only 17 amino acids of the putative chloroplast transit peptide; expressed in transfected cells; host or cells: E. coli SASX38 (hemG mutant)
# T4 sequence (P55826 41-537 T56K/N425S/Y426C): as the sequence (P55826 41-537 T56K/A220L) above, with L180A, N385S, Y386C counted along it
# Procedure: as §1
# [6] = biological target: T5, plant protox mutants (Arabidopsis protox-1) in SASX38 (Arabidopsis thaliana, UniProt P55826, N425S/T56K/Y426M); assay: as above; assay type: cell-based; set-up: key to Cross tolerance, AraC-1Val / Cross tolerance, AraC-2Cys / Cross tolerance, AraC-1Thr / Cross tolerance, AraC-3Thr / Cross tolerance, AraC-2Ile / Cross tolerance, AraC-2Cys + AraC425Ser: + = 10× or more tolerant than WT; ++ = 100× or more tolerant than WT; − = no cross tolerance; settings: mutant AraC-2Met + AraC425Ser
# T5 construct: contains only 17 amino acids of the putative chloroplast transit peptide; expressed in transfected cells; host or cells: E. coli SASX38 (hemG mutant)
# T5 sequence (P55826 41-537 T56K/N425S/Y426M): as the sequence (P55826 41-537 T56K/A220L) above, with L180A, N385S, Y386M counted along it
# Procedure: as §1
# [7] = biological target: T6, plant protox mutants (Arabidopsis protox-1) in SASX38 (Arabidopsis thaliana, UniProt P55826, T56K/Y426C); assay: as above; assay type: cell-based; set-up: key to Cross tolerance, AraC-1Val / Cross tolerance, AraC-2Cys / Cross tolerance, AraC-1Thr / Cross tolerance, AraC-3Thr / Cross tolerance, AraC-2Ile / Cross tolerance, AraC-2Cys + AraC425Ser: + = 10× or more tolerant than WT; ++ = 100× or more tolerant than WT; − = no cross tolerance; settings: mutant AraC-2Cys vs WT plasmid in SASX38
# T6 construct: contains only 17 amino acids of the putative chloroplast transit peptide; expressed in transfected cells; host or cells: E. coli SASX38 (hemG mutant)
# T6 sequence (P55826 41-537 T56K/Y426C): as the sequence (P55826 41-537 T56K/A220L) above, with L180A, Y386C counted along it
# Procedure: as §1
# [8] = system: plant protox mutants (Arabidopsis protox-1) in SASX38; assay: as above; assay type: cell-based; set-up: key to Cross tolerance, AraC-1Val / Cross tolerance, AraC-2Cys / Cross tolerance, AraC-1Thr / Cross tolerance, AraC-3Thr / Cross tolerance, AraC-2Ile / Cross tolerance, AraC-2Cys + AraC425Ser: + = 10× or more tolerant than WT; ++ = 100× or more tolerant than WT; − = no cross tolerance; settings: mutant AraC-3Thr vs WT plasmid in SASX38
# Procedure: as §1
# [9] = biological target: T7, plant protox mutants (MzC-1Val, maize protox-1) in SASX38 (Arabidopsis thaliana, UniProt P55826, A220V/A252T/A259N/A262P/A292S/A82G/A83V/D204A/D323E/D487E/D93A/DEL80-81/E103P/E263P/E288N/E311D/E351S/E499D/F107Y/F178L/F250I/F483L/G171P/G277A/G306S/G313K/G344N/G441S/H340Y/I100T/I174L/I370V/I421V/I485L/I71T/I87L/INS101VE/K237R/K257S/K359R/K388Q/K457N/K465V/K78R/K92R/L137F/L159P/L310S/L325V/L345I/L360F/L436V/L86V/M122V/N105E/N149E/N241T/N258K/N316V/N355D/N459T/N85D/P266A/P418D/P458S/P84G/Q240E/Q272K/R284A/R293S/S186P/S291T/S305T/S312D/S330A/S352D/S369T/S430A/S439T/S460A/S491A/S492A/S495R/S496G/T141N/T160A/T318E/T379K/T397S/T461V/T488A/T494D/T56K/V126A/V334I/V337I/V95P); assay: Bacterial cross-tolerance testing of resistant mutant plasmids in SASX38, maize protox-1 mutant; assay type: cell-based; settings: mutant MzC-1Val vs WT plasmid in SASX38
# T7 construct: expressed in transfected cells; host or cells: E. coli SASX38 (hemG mutant)
# T7 sequence (P55826 other isoform, or with tags, fused parts or gaps with the stated changes): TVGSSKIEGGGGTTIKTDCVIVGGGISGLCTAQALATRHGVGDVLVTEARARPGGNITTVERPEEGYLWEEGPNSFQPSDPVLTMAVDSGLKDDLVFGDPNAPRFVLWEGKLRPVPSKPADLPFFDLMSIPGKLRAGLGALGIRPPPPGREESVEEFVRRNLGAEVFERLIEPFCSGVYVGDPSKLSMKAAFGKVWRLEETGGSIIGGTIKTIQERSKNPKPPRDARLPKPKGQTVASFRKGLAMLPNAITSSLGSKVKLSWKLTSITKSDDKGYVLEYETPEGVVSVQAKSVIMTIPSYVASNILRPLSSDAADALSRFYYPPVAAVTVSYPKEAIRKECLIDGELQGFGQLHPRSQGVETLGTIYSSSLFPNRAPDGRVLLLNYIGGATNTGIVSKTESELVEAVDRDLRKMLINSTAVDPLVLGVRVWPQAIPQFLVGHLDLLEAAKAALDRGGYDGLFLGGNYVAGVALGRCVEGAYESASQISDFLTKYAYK
# Procedure: as §1
# maize protox-1 mutants = assay: Mutant screens of maize protox-1 (pMut-3) in the E. coli system; assay type: cell-based; settings: screen on this herbicide
# Procedure: The pMut-3 plasmid was transformed into the mutator XL1-Red strain as described above and the mutated DNA was isolated and plated on a herbicide concentration (formula XVII) that was lethal to the unmutagenized pMut-3 maize protox gene. Herbicide tolerant colonies were isolated after two days at 37° C. and analyzed as described above. […] Three of these mutations correspond to amino acid changes previously shown to confer tolerance at the homologous position in the Arabidopsis protox-1 gene. Two of the three are pMzC-1Val and pMzC-1Thr, converting the alanine (GCT) at amino acid 164 (SEQ ID NO:6) to either valine ([…]) or to threonine (ACT). This position corresponds to the pAraC-1 mutations described above (see, Table 1B; sub-sequence 3). The third analogous change, pMzC-3Ser, converts the glycine (GGT) at amino acid 165 to Serine (AGT), corresponding to the AraC-3Ser mutation described above (see, Table 1B; sub-sequence 4).
# Additional mutant screens performed as described earlier in this example, except using formulas XXIIIa and XXIIIb instead of XVII, identified three additional amino acid changes that confer tolerant protox enzymes. […]
# [10] = biological target: T8, plant protox mutants (Arabidopsis protox-1) in SASX38 (Arabidopsis thaliana, UniProt P55826, N425S/T56K/Y426L); assay: Bacterial cross-tolerance testing of resistant mutant plasmids in SASX38, Arabidopsis protox-1 mutants; assay type: cell-based; set-up: key to Cross tolerance, AraC-1Val / Cross tolerance, AraC-2Cys / Cross tolerance, AraC-1Thr / Cross tolerance, AraC-3Thr / Cross tolerance, AraC-2Ile / Cross tolerance, AraC-2Cys + AraC425Ser: + = 10× or more tolerant than WT; ++ = 100× or more tolerant than WT; − = no cross tolerance; settings: mutant AraC-2Leu + AraC425Ser
# T8 construct: contains only 17 amino acids of the putative chloroplast transit peptide; expressed in transfected cells; host or cells: E. coli SASX38 (hemG mutant)
# T8 sequence (P55826 41-537 T56K/N425S/Y426L): as the sequence (P55826 41-537 T56K/A220L) above, with L180A, N385S, Y386L counted along it
# Procedure: as §1
smiles,measurement,setting,value
O=C([O-])c1cc(Oc2ccc(C(F)(F)F)cc2Cl)ccc1[N+](=O)[O-].[Na+] [II],Tolerance,[1],+ (+ ≧ 10× more tolerant than wt)
CCOc1cc(Oc2ccc(C(F)(F)F)cc2Cl)ccc1[N+](=O)[O-] [IVc],Tolerance,[1],+ (+ ≧ 10× more tolerant than wt)
C#CC(C)Oc1cc(N2C(=O)C3=C(CCCC3)C2=O)c(F)cc1Cl (stereo not shown) [XV],"Cross tolerance, AraC-1Leu",[2],++ (++ = 100× or more tolerant than WT)
same,"Cross tolerance, AraC-1Thr",[3],+ (+ = 10× or more tolerant than WT)
same,"Cross tolerance, AraC-1Val",[4],+ (+ = 10× or more tolerant than WT)
same,"Cross tolerance, AraC-2Cys + AraC425Ser",[5],++ (++ = 100× or more tolerant than WT)
same,"Cross tolerance, AraC-2Met + AraC425Ser",[6],++ (++ = 100× or more tolerant than WT)
same,"Cross tolerance, AraC-2Cys",[7],+ (+ = 10× or more tolerant than WT)
same,"Cross tolerance, AraC-3Thr",[8],+ (+ = 10× or more tolerant than WT)
same,"Cross tolerance, MzC-1Val",[9],+ (+ = 10× or more tolerant than WT)
CCOC(=O)COc1cc(-c2nn(C)c(OC(F)F)c2Cl)c(F)cc1Cl [XII],"Cross tolerance, AraC-1Thr",[3],++ (++ = 100× or more tolerant than WT)
same,"Cross tolerance, AraC-1Val",[4],+ (+ = 10× or more tolerant than WT)
same,"Cross tolerance, AraC-2Cys",[7],−
same,"Cross tolerance, AraC-3Thr",[8],++ (++ = 100× or more tolerant than WT)
same,"Cross tolerance, MzC-1Val",[9],++ (++ = 100× or more tolerant than WT)
CS(=O)(=O)NC(=O)c1cc(Oc2ccc(C(F)(F)F)cc2Cl)ccc1[N+](=O)[O-] [III],Tolerance,[1],+ (+ ≧ 10× more tolerant than wt)
Cn1nc(-c2c(F)cc(Cl)c(=O)n2C)c(Cl)c1OC(F)F [Formula XXIIIb],tolerance of maize enzyme Mz88Cys,maize protox-1 mutants; arginine 88 to cysteine,highly tolerant
CCOC(=O)C(C)OC(=O)c1cc(Oc2ccc(C(F)(F)F)cc2Cl)ccc1[N+](=O)[O-] (stereo not shown) [IVd],Tolerance,[1],± (± ≦ 10× more tolerant than wt)
C#CCN1C(=O)COc2cc(F)c(N3C(=O)C4=C(CCCC4)C3=O)cc21 [XVI],"Cross tolerance, AraC-1Thr",[3],−
same,"Cross tolerance, AraC-1Val",[4],−
same,"Cross tolerance, AraC-2Cys + AraC425Ser",[5],+ (+ = 10× or more tolerant than WT)
same,"Cross tolerance, AraC-2Leu + AraC425Ser",[10],++ (++ = 100× or more tolerant than WT)
same,"Cross tolerance, AraC-2Met + AraC425Ser",[6],++ (++ = 100× or more tolerant than WT)
same,"Cross tolerance, AraC-2Cys",[7],−
same,"Cross tolerance, AraC-3Thr",[8],−
same,"Cross tolerance, MzC-1Val",[9],+ (+ = 10× or more tolerant than WT)
same,Tolerance,[1],+++ (+++ ≧ 1000× more tolerant than wt)
CC(Cl)C(=O)Nc1c([N+](=O)[O-])cnn1-c1c(Cl)cc(C(F)F)cc1Cl (stereo not shown) [XXIa],Tolerance,[1],+ (+ ≧ 10× more tolerant than wt)
Cn1nc(-c2ncc(Cl)cc2F)c(Cl)c1OC(F)F [Formula XXIIIa],tolerance of maize enzyme Mz347Ser453Thr,maize protox-1 mutants; double mutant,highly tolerant
COC(=O)c1cc(Oc2ccc(Cl)cc2Cl)ccc1[N+](=O)[O-] [IVb],Tolerance,[1],+ (+ ≧ 10× more tolerant than wt)
Cc1nn(-c2cc(NS(C)(=O)=O)c(Cl)cc2Cl)c(=O)n1C(F)F [X],Tolerance,[1],+ (+ ≧ 10× more tolerant than wt)
